Test results reported in patent US9855273B2, “Combination therapy for MDS” (priority 2013, dated 2018).

Assays:
MDSL cells = test: MDSL xenograft, cells pre-treated in vitro, NSGS mice; assay type: in vivo; conditions: MDSL treated in vitro with IRAK-Inh 10 μM and/or ABT-263 0.1 μM; DMSO 28 days
Method: Xenograftment of NOD/SCID-IL2Rγ(NSG) and NSG-hSCF/hGM-CSF/hIL3 (NSGS) MDSL cells (1×10^6-5×10^6) were injected into the tail veins of 8-week old sublethally irradiated ([…]) NSG or NSG animals engineered to express human SCF, GM-CSF, and IL3 (NSGS) as previously described (Wunderlich et al., 2010). Mice were monitored by performing complete blood counts (Drew Hemavet 950FS). Following red cell lysis, human MDSL cells were identified by hCD45-FITC staining. In vivo delivery of IRAK-Inh approach is adapted from previous reports (Yang et al., 2011): IRAK-Inh was diluted in DMSO (5 mM) and further dissolved in sterile phosphate buffered saline (PBS; pH 7.2). Animals were injected i.p. with 2.12 mg/kg IRAK-Inh 3× weekly.
To determine whether IRAK-Inh can delay human MDS-like disease in vivo, MDSL were pre-treated with IRAK-Inh (10 μM) for 24 hrs in vitro and subsequently injected intravenously (i.v.) into NSG (5×10^6 cells) and NSGS (1×10^6 cells) recipient mice (FIG. 4A). This approach permitted us to evaluate the cell autonomous effect of IRAK-Inh on MDS cell viability and engraftment without altering endogenous IRAK1 function in the mouse.
Moreover, we investigated whether combined IRAK1 and BCL2 inhibition could delay human MDS-like disease in vivo. MDSL cells were treated with IRAK-Inh (10 μM) and/or ABT-263 (0.1 μM) for 48 hrs in vitro and subsequently injected i.v. into NSGS mice (FIG. 4A).

normal CD34+ cells = test: Colony formation in methylcellulose, normal CD34+ cells; conditions: individual or combination treatment
Method: The effect of IRAK-Inh on leukemic progenitor function was evaluated in methylcellulose containing IRAK-Inh. […] As an alternative approach, MDS/AML cells were pre-treated with IRAK-Inh for 24 hours and then plated in methylcellulose.

[1] = system: MDS/AML cell lines (MDSL, TF1, THP1, HL60); test: Viable cell growth (trypan blue exclusion) of MDS/AML cell lines; assay type: cell-based, human; conditions: IRAK-Inh 10 μM, ABT-263 0.1 μM
Method: Acute myeloid leukemic cell lines, HL60, THP1, and TF-1 were purchased from the American Type Culture Collection. MOLM13 were purchased from AddexBio. The myelodysplastic cell line, MDS-L, was provided by Dr. Kaoru Tohyama (Kawasaki Medical School, Okayama, Japan) (Matsuoka et al., 2010). […] Additionally, both the MDSL and TF-1 cell lines were cultured in the presence of 10 ng/mL human recombinant IL-3 (Stemcell Technologies).

## CC1(C)CCC(c2ccc(Cl)cc2)=C(CN2CCN(c3ccc(C(=O)NS(=O)(=O)c4ccc(N[C@H](CCN5CCOCC5)CSc5ccccc5)c(S(=O)(=O)C(F)(F)F)c4)cc3)CC2)C1 [ABT-263]
MDSL cells
  median survival: ~35 days
Normal CD34+ cells
  viability and hematopoietic progenitor function of normal CD34+ cells: not affected
[1]; HL60, alone or combined
  sensitivity of HL60 cells: refractory
[1]; alone or co-treatment
  MDS/AML cell line growth and survival: modest effects
